GI50 and TGI data for 28 molecules are collected here from PubChem BioAssay (NCI).

Each structure is given as a SMILES string. “And” between values parts separate entries of the source, which are not always exact repeats. Equal values may be shown once.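 Compound exposure: 48 hours, 5 concentrations, 96-well plates. Abbreviation: GI50, concentration required for 50% inhibition of growth. Definition used: TGI = concentration required for complete inhibition of growth.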

Common to all, as to test: growth of human tumour cells (NCI), 48 h
The subject of assay [1] is 786-0 renal.
Assay [2] deals with KM12 colon.
The test system of assay [3] is OVCAR-3 ovarian.
The test system of assay [4] is OVCAR-4 ovarian.
In assay [5] the test system is SF-295 CNS.
For assay [6], the system named is SF-539 CNS.
Assay [7] has as its system SK-MEL-28 melanoma.
In assay [8] the test system is SNB-75 CNS.
Assay [9] deals with SR leukemia.

With `CC1(C)CC([P+](c2ccccc2)(c2ccccc2)c2ccccc2)=NN1`, the GI50 is 26.6 µM in assay [1]; 1.89 µM in assay [2]; 2.18 µM in assay [3]; 3.07 µM in assay [4]; 8.68 µM in assay [5]; 6.13 µM in [6]. The GI50 is 8.67 µM in assay [7], 5.3 µM in assay [8] and 1.2 µM in assay [9]. The TGI in [1] was over 100 µM; in [2], 45.9 µM; in assay [3], 73.7 µM; in assay [4], over 100 µM; in assay [5] it was 43.9 µM; in assay [6], 97.3 µM. Besides, the TGI was over 100 µM in [7], over 100 µM in [8] and 5.51 µM in [9].
As for `O=C(N/C(=C\c1ccc(/C=C(\NC(=O)c2ccccc2)c2nc3ccccc3s2)cc1)c1nc2ccccc2s1)c1ccccc1`, the TGI stood at 3.49 µM in [1]; 22.6 µM in assay [2]; 12.1 µM in assay [3]; 19.6 µM in assay [4]; 16.1 µM in assay [5]; 4.61 µM in [6]. The values for the TGI in assay [7] and in assay [8] were 24.2 µM and 26.7 µM, respectively.
In the case of `CC1[C@@H]2CC=C3[C@H]4CCC5Cc6nc7c(nc6C[C@@]5(C)C4(O)CC(=O)[C@]32CO[C@]12OC(C)(C)CC2O)CC1CC[C@@H]2C3=C[C@H]4O[C@@]5(O[C@@](C)(CO)C[C@@H]5O)C(C)[C@@]4(O)[C@]3(C)[C@@H](O)CC2[C@]1(C)C7` (some centres undefined), the GI50 in [1] was 0.000142 µM; in assay [5], under 0.00036 µM; in assay [6], 0.00036 µM; in [7], 0.000236 µM; in assay [8], 0.00036 µM; in assay [9] it was 0.000155 µM. Also, the TGI in assay [1] was 0.0446 µM; in assay [3], over 3.6 µM; in assay [4], over 3.6 µM; in assay [5] it was 0.000131 µM and < 0.00036 µM; in assay [7], 0.00201 µM; in assay [9], 0.0821 µM.
Turning to `Cn1c(=O)c(C(=O)NC(=O)NCCCCCOC(=O)CCCCCCCCCCC(=O)OCCCCCNC(=O)NC(=O)c2cn(Cc3ccccc3)c(=O)n(C)c2=O)cn(Cc2ccccc2)c1=O`, the TGI in assay [1], in assay [2], in [3], in assay [4], in [6] and in assay [7] was over 100 µM each time. Further, the TGI in [8] was over 100 µM.
As to `CC1(C(=O)O)CCOc2ccccc21` (centres undefined), the TGI in assay [1], in [3], in assay [4], in assay [5], in assay [6] and in [7] was over 100 µM in each case. In addition, the TGI in assay [8] and in [9] was over 100 µM in each case.
Consider `O=C(Nc1nc2ccc([N+](=O)[O-])cc2s1)C(=O)C(C(=O)c1ccncc1)C1OC(=O)c2ccccc21` (centres undefined), for which the TGI in assay [1], in assay [2], in assay [3], in [4], in assay [8] and in assay [9] was over 100 µM in each case.
In the case of `CCn1c(=O)c2ccccc2n2c(=O)c3cc4ccccc4cc3nc12`, the TGI in assay [1] is over 100 µM; in assay [2] it was over 100 µM; in [3] it was over 100 µM; in [5], 80 µM; in [6], over 100 µM; in assay [8], 95.3 µM.
As for `CCOC(=O)C(C(=O)OCC)C(=O)c1ccccc1C(=O)c1ccccc1`, the TGI in [1], in assay [2], in [3], in assay [4], in assay [5] and in [6] was over 100 µM in each case. Further, the TGI in assay [8] was over 100 µM; in assay [9] it was 48.8 µM.
For the molecule `NCc1c(C(N)=O)ncn1Cc1ccccc1`, the TGI in [1], in assay [3], in assay [4], in assay [5], in [6] and in assay [7] was over 100 µM throughout. In addition, in assay [8], the TGI is over 100 µM.
For the molecule `Cc1c(-c2nnc(-c3ccccc3)o2)c(=O)n(-c2ccccc2)n1C`, the TGI in [1], in assay [2], in assay [3], in assay [4], in assay [5] and in [6] was over 100 µM each time. The TGI in assay [7], in [8] and in assay [9] was over 100 µM each time.
`CCN(CC)CCn1c2ccc(OC)cc2c2sc3cc(OC)ccc3c(=O)c21`: the GI50 was 1.59 µM in [1]; 2 µM in assay [2]; 2.12 µM in assay [3]; 1.84 µM in [4]; 1.82 µM in [5]; 1.66 µM in [6]. Besides, the GI50 in assay [7] is 1.7 µM; in assay [8], 1.11 µM; in [9], 0.704 µM. Further, the TGI in assay [1] was 3.23 µM; in assay [2], 4.32 µM; in assay [3] it was 4.54 µM; in assay [4], 4.88 µM; in assay [5], 3.45 µM; in assay [6], 3.05 µM. Moreover, the figures for the TGI in assay [7], in [8] and in [9] were 3.12 µM, 6.48 µM and 3.05 µM, respectively.
With `CCOC(=O)N1C(c2ccccc2)C=CC(c2ccccc2)N1C(=O)OCC` (centres undefined), the TGI in assay [1], in [2], in [3], in assay [4], in assay [5] and in assay [6] was over 100 µM in each case. Also, the TGI in assay [7], in [8] and in [9] was over 100 µM throughout.
Take `O=C1C(=O)N(c2nccs2)C(=O)C(=O)C1c1nc2ccccc2s1`: the TGI in assay [1], in assay [2], in [3], in [4], in assay [5] and in assay [6] was over 100 µM throughout. Besides, the TGI in [7] and in assay [8] was over 100 µM each time.
As for `Cc1ccc(C2=C(c3ccc(C)cc3)C(c3ccc(C)cc3)=C(c3ccc(C)cc3)C2=O)cc1`, the TGI in [1], in [2], in [5], in [6], in assay [7] and in assay [8] was over 100 µM throughout. This molecule also registered a TGI in assay [9] of over 100 µM.
On to `O=c1cccccc1[O-].O=c1cccccc1[O-].O=c1cccccc1[O-].[Ce+3]`, for which the TGI is 55.2 µM in assay [1]; over 100 µM in assay [2]; 35.5 µM in assay [3]; 76.7 µM in assay [4]; 78.1 µM in assay [5]; 58.8 µM in assay [6]. Further, in assay [6], the GI50 was 14.8 µM.
For the molecule `CCCCCCCCCCCCCCCCCCOc1ccccc1CC(=O)NCC[N+](C)(C)C`, the GI50 in assay [1] is 3.57 µM; in assay [3] it was 3.55 µM; in [4], 3.11 µM; in assay [5] it was 5.09 µM; in [6], 5.48 µM; in assay [7] it was 10.4 µM. Moreover, the values for the GI50 in [8] and in [9] were 1.98 µM and 2.71 µM, respectively. Further, the TGI in assay [1] is 78.7 µM; in assay [3] it was 50.5 µM; in assay [4], 30 µM; in assay [5], 38.9 µM; in assay [6] it was 37 µM; in [7], 45.4 µM. For the same molecule, the TGI in assay [8] is 8.9 µM; in [9], over 100 µM.
Turning to `CC1CCCc2c1c1ccc3c(O)cccc3c1oc2=O` (centres undefined), the TGI was 64.7 µM in assay [1]; over 100 µM in [2]; over 100 µM in assay [3]; 91.3 µM in assay [4]; 33.8 µM in assay [5]; over 100 µM in assay [7]. Also, the figures for the TGI in assay [8] and in assay [9] were 21.8 µM and over 100 µM, respectively.
Take `CC(=O)[O-].[Zn].c1ccc(/C(=N\Nc2ccccn2)c2ccccn2)cc1`: the GI50 in assay [1] is 0.366 µM; in assay [5], 0.46 µM; in assay [6] it was 1.43 µM. The TGI in [1] is 2.16 µM; in assay [4] it was 18.1 µM; in assay [5], 12.3 µM; in [6] it was 9.53 µM; in assay [8], 2.63 µM.
As for `OCC(O)C(O)C(O)c1nn(-c2ccccc2)c2nc3cc(Cl)c(Cl)cc3nc12` (centres undefined), the TGI in assay [1] was over 100 µM; in [3], over 100 µM; in [4], over 100 µM; in assay [5] it was over 100 µM; in assay [6] it was 38.5 µM; in assay [7] it was over 100 µM. Moreover, the TGI in [8] was 47.8 µM; in [9], over 100 µM.
In the case of `C=C1CCCC2[C@](C)(CC3=C(O)C(=O)C=C(OC)C3=O)[C@@H](C)CC[C@]12C` (some centres undefined), the TGI in assay [1] is 18.3 µM; in [2], 17.4 µM; in [3] it was 31.3 µM; in assay [4], 78.2 µM; in assay [5] it was 13.7 µM; in [6], 16 µM. Also, the TGI in assay [7] and in assay [8] was over 100 µM throughout.
As for `CC(=O)/C=C1\CC(=O)Nc2ccccc2N1`, the TGI in [1], in assay [2], in assay [4], in [5], in assay [6] and in assay [7] was over 100 µM throughout. Moreover, the TGI in assay [8] and in assay [9] was over 100 µM throughout.
Take `CC(=O)OC1CCC2C(=CCC3C2(C)C(=O)CC2(C)C(C4(C)OC(C(C)C)=CC4=O)C(O)CC32C)C1(C)C` (centres undefined): the TGI is over 100 µM in assay [1]; over 10 µM in assay [2]; over 10 µM in assay [3]; 33.2 µM in [6]; over 100 µM in assay [8]; 72.5 µM in [9].
In the case of `O=C(O)c1ccccc1N=Nc1ccc2oc(=O)c(C(=O)Nc3ccccc3)cc2c1`, the TGI is over 100 µM in assay [1]; over 100 µM in assay [2]; 70.4 µM in assay [3]; over 100 µM in assay [5]; over 100 µM in assay [6]; over 100 µM in assay [7]. The TGI in assay [8] stood at 98.3 µM.
In the case of `CC(C)C(=O)[O-].CC(C)C(=O)[O-].N.N.N.N.[Co+3].[O-][Cl+3]([O-])([O-])[O-]`, the GI50 in [1], in [2], in assay [3], in assay [4], in [5] and in assay [6] was over 100 µM each time. The GI50 in assay [7] and in assay [8] was over 100 µM each time. In addition, the TGI in assay [1], in assay [2], in assay [3], in [4], in [5] and in [6] was over 100 µM throughout. The TGI in assay [7] and in assay [8] was over 100 µM each time.
In the case of `CCOC(=O)C(C)(C)Oc1ccc2c(-c3ccc(Cl)cc3)c(-c3ccc(Cl)cc3)c(=O)oc2c1`, the TGI in assay [1], in assay [3], in assay [4], in [5], in assay [6] and in assay [7] was over 100 µM each time. The TGI in assay [8] and in assay [9] was over 100 µM in each case.
Consider `CCN(CC)c1ccc(N=C2C=C(Cl)C(=O)c3ncccc32)c(C)c1`, for which the TGI was 12.2 µM in assay [1]; 5.04 µM in assay [3]; 18.3 µM in assay [4]; 35.9 µM in assay [5]; 28 µM in assay [6]; 91 µM in assay [7]. For the same molecule, the TGI in assay [8] came to 88.3 µM.
Take `CC(NC(=O)C(=O)N/N=C1\C[C@@H](c2ccccc2)Nc2ccccc21)c1ccccc1` (some centres undefined): the TGI in [1], in [2], in assay [3], in assay [4], in [5] and in assay [6] was over 100 µM each time. Also, the TGI in assay [7] and in [8] was over 100 µM each time.
In the case of `CCOC(=O)c1ccc(N2C(=O)Cc3ccccc3C2=O)cc1`, the TGI in assay [1], in assay [2], in [3], in assay [5], in assay [6] and in assay [7] was over 100 µM in each case. The TGI in assay [8] and in assay [9] was over 100 µM each time.
